Measured values: patent US20220330549A1, “USE OF N-BENZYLBENZAMIDE-BASED COMPOUND AS HERBICIDE” (Northwest A&F University, priority 2020, published 2022)

Legend:
Assay type in all cases: in vivo
Amaranthus retroflexus [1] = experiment: Herbicidal activity test for indoor pre-emergence soil treatment; parameters: key: 1-9 levels; higher = more weed remaining vs blank control; details: 150 g a.i./ha, visual inspection 21 days after treatment
Experimental: (§1) The herbicidal activity test for indoor pre-emergence soil treatment was performed with some of the N-benzylbenzamide-based compounds of general formula I or II with reference to the method of NY/T 1155.3-2006. Neutral sandy loam soil having an organic content of ≤2% was added to fill ⅘ of the pot, and the soil was completely moistened by infiltrating irrigation from the bottom of the pot. The seeds of the test weed were evenly spread on the soil surface, and then covered by 0.5 cm to 2.0 cm of soil depending on the seed size. Representative compounds in the examples were used to prepare emulsifiable concentrates (10%), and spray treatments to the soil were performed 24 hours after the sowing with the test agents diluted with water, at a spraying dosage of 150 g(a.i.)/ha. Then, the results were investigated by visual inspection 21 days after the treatments. The herbicidal activity of the agent was evaluated on a scale of 1-9 levels according to the symptoms and severity of damage to the test weeds.
(§2) Level 2: equivalent to 0 to 2.5% of the weed in the blank control area;
(§3) Level 3: equivalent to 2.6 to 5% of the weed in the blank control area;
(§4) Level 4: equivalent to 5.1 to 10% of the weed in the blank control area;
(§5) Level 5: equivalent to 10.1 to 15% of the weed in the blank control area;
(§6) Level 6: equivalent to 15.1 to 25% of the weed in the blank control area;
(§7) Level 7: equivalent to 25.1 to 35% of the weed in the blank control area;
(§8) Level 8: equivalent to 35.1 to 67.5% of the weed in the blank control area; and
(§9) Level 9: equivalent to 67.6 to 100% of the weed in the blank control area.

Digitaria sanguinalis [2] = experiment: as above; parameters: key: 1-9 levels; higher = more weed remaining vs blank control; details: 150 g a.i./ha, visual inspection 21 days after treatment
Experimental: as §1, §2, §3, §4, §5, §6, §7, §8, §9

green bristlegrass [3] = experiment: Herbicidal activity test for indoor post-emergence spraying on stems and leaves; parameters: key: grade level by weed remaining vs blank control, e.g. 5 = 10.1-15%; details: 150 g a.i./ha, visual inspection 21 days after treatment
Experimental: (§10) The post-emergence herbicidal activity test was performed with some of the N-benzylbenzamide-based compounds of general formula I or II with reference to the method of NY/T 1155.4-2006. […] After the sowing, the weed was moved to a greenhouse for regular cultivation. […] Then, the results were investigated by visual inspection 21 days after the treatments. […] Level 5: equivalent to 10.1 to 15% of the weed in the blank control area; Level 6: equivalent to 15.1 to 25% of the weed in the blank control area; Level 7: equivalent to 25.1 to 35% of the weed in the blank control area; Level 8: equivalent to 35.1 to 67.5% of the weed in the blank control area; and […]

Amaranthus retroflexus [4] = experiment: as above; parameters: key: grade level by weed remaining vs blank control, e.g. 5 = 10.1-15%; details: 150 g a.i./ha, visual inspection 21 days after treatment
Experimental: as §10

Barnyard grass [5] = experiment: as above; parameters: key: grade level by weed remaining vs blank control, e.g. 5 = 10.1-15%; details: 150 g a.i./ha, visual inspection 21 days after treatment
Experimental: as §10

Humulus scandens [6] = experiment: as above; parameters: key: grade level by weed remaining vs blank control, e.g. 5 = 10.1-15%; details: 150 g a.i./ha, visual inspection 21 days after treatment
Experimental: as §10

Digitaria sanguinalis [7] = experiment: as above; parameters: key: grade level by weed remaining vs blank control, e.g. 5 = 10.1-15%; details: 150 g a.i./ha, visual inspection 21 days after treatment
Experimental: as §10

Piemarker [8] = experiment: as above; parameters: key: grade level by weed remaining vs blank control, e.g. 5 = 10.1-15%; details: 150 g a.i./ha, visual inspection 21 days after treatment
Experimental: as §10

Broadleaf weed = experiment: Post-emergence herbicidal activity test in a paddy field; parameters: key: level scale; higher level = more weed left vs blank control; details: 150 g a.i./ha (penoxsulam control 250 g(a.i.)/h)
Experimental: (§11) The post-emergence herbicidal activity test was performed in a paddy field with some of the N-benzylbenzamide-based compounds of general formula I or II with reference to the method of GB/T 17980.40-2000. […] Spray treatments were performed in the stage where 4 leaves to 5 leaves were grown for the rice seedlings which was about 1 month after the sowing. Representative compounds in the examples were used to prepare emulsifiable concentrates (10%), and spray treatments were performed with the concentrates in water at a dosage of 150 g(a.i.)/ha, and repeated 4 times for each treatment, and the area was 50 m^2. 25 g/L of penoxsulam suspension was used as a control agent and applied at a dosage of 250 g(a.i.)/h. The results were investigated by a value estimating survey method 15 days and 30 days after the treatments. The relative weed population quantities were estimated by comparing each agent treated area with an adjacent blank control area, and the results of which were investigated with the following grading standard method using the overall coverage of the weed population as an indicator.
as §2, §3, §4, §5, §6, §7, §8, §9

Gramineae = experiment: as above; parameters: key: level scale; higher level = more weed left vs blank control; details: 150 g a.i./ha (penoxsulam control 250 g(a.i.)/h)
Experimental: as §11, §2, §3, §4, §5, §6, §7, §8, §9

Cyperaceae = experiment: as above; parameters: key: level scale; higher level = more weed left vs blank control; details: 150 g a.i./ha (penoxsulam control 250 g(a.i.)/h)
Experimental: as §11, §2, §3, §4, §5, §6, §7, §8, §9

Chenopodium album = experiment: Field test for weed control in a corn field; details: 150 g a.i./ha, after treatment
Experimental: (§12) The weed control efficacy field test was performed in a corn field with some of the N-benzylbenzamide-based compounds of general formula I or II with reference to the method of GB/T 17980.42-2000. […] Spray treatments were performed in the stage where 2 leaves to 5 leaves were grown for the corns after the sowing. Representative compounds in the examples were used to prepare emulsifiable concentrates (10%), and spray treatments were performed with the concentrates in water at a dosage of 150 g(a.i.)/ha, and repeated 4 times for each treatment, and the area was 20 m^2. Oil dispersion with 25% of mesotrione was used as a control agent and applied at a dosage of 150 g(a.i.)/h. […] The herbicidal activities of the agents were evaluated on a scale of 1-9 levels according to the symptoms and severity of damage to the test weeds.
as §2, §3, §4, §5, §6, §7, §8, §9

green bristlegrass [9] = experiment: Field test for weed control in a corn field; details: 150 g a.i./ha, after treatment
Experimental: as §12, §2, §3, §4, §5, §6, §7, §8, §9

Portulaca oleracea = experiment: Field test for weed control in a corn field; details: 150 g a.i./ha, after treatment
Experimental: as §12, §2, §3, §4, §5, §6, §7, §8, §9

Acalypha australis = experiment: Field test for weed control in a corn field; details: 150 g a.i./ha, after treatment
Experimental: as §12, §2, §3, §4, §5, §6, §7, §8, §9

Amaranthus retroflexus [10] = experiment: Field test for weed control in a corn field; details: 150 g a.i./ha, 30 days after treatment
Experimental: as §12, §2, §3, §4, §5, §6, §7, §8, §9

Solanum nigrum = experiment: Field test for weed control in a corn field; details: 150 g a.i./ha, 30 days after treatment
Experimental: as §12, §2, §3, §4, §5, §6, §7, §8, §9

Convolvulus arvensis = experiment: Field test for weed control in a corn field; details: 150 g a.i./ha, after treatment
Experimental: as §12, §2, §3, §4, §5, §6, §7, §8, §9

Barnyard grass [11] = experiment: Field test for weed control in a corn field; details: 150 g a.i./ha, 30 days after treatment
Experimental: as §12, §2, §3, §4, §5, §6, §7, §8, §9

Digitaria sanguinalis [12] = experiment: Field test for weed control in a corn field; details: 150 g a.i./ha, after treatment
Experimental: as §12, §2, §3, §4, §5, §6, §7, §8, §9

goosegrass = experiment: Field test for weed control in a corn field; details: 150 g a.i./ha, after treatment
Experimental: as §12, §2, §3, §4, §5, §6, §7, §8, §9

nutgrass flatsedge = experiment: Field test for weed control in a corn field; details: 150 g a.i./ha, after treatment
Experimental: as §12, §2, §3, §4, §5, §6, §7, §8, §9

Humulus scandens [13] = experiment: Herbicidal activity test for indoor pre-emergence soil treatment; details: 150 g a.i./ha, visual inspection 21 days after treatment
Experimental: as §1, §2, §3, §4, §5, §6, §7, §8, §9

green bristlegrass [14] = experiment: as above; parameters: key: level 1-9; higher = more weed remaining vs blank control; details: 150 g a.i./ha, visual inspection 21 days after treatment
Experimental: as §1, §2, §3, §4, §5, §6, §7, §8, §9

Barnyard grass [15] = experiment: as above; parameters: key: level 1-9; higher = more weed remaining vs blank control; details: 150 g a.i./ha, visual inspection 21 days after treatment
Experimental: as §1, §2, §3, §4, §5, §6, §7, §8, §9

Piemarker [16] = experiment: as above; parameters: key: level 1-9; higher = more weed remaining vs blank control; details: 150 g a.i./ha, visual inspection 21 days after treatment
Experimental: as §1, §2, §3, §4, §5, §6, §7, §8, §9

COc1ncccc1C(=O)NCc1cccc(Cl)c1 [Compound A91]
Herbicidal Activity Amaranthus retroflexus (Amaranthus retroflexus [1]): 1 | Herbicidal Activity Digitaria sanguinalis (Digitaria sanguinalis [2]): 2 (equivalent to 0 to 2.5% of the weed in the blank control area) | Herbicidal Activity Green bristlegrass (green bristlegrass [3]): 1 | Herbicidal Activity Amaranthus retroflexus (Amaranthus retroflexus [4]): 1 | Herbicidal Activity Barnyard grass (Barnyard grass [5]): 1 | Herbicidal Activity Humulus scandens (Humulus scandens [6]): 1 | Herbicidal Activity Digitaria sanguinalis (Digitaria sanguinalis [7]): 1 | Herbicidal Activity Piemarker (Piemarker [8]): 1 | Herbicidal activity 15 days after treatment Broadleaf weed (Broadleaf weed; 15 days after treatment): 1 | Herbicidal activity 30 days after treatment Broadleaf weed (Broadleaf weed; 30 days after treatment): 1 | Herbicidal activity 15 days after treatment Gramineae (Gramineae; 15 days after treatment): 2 (equivalent to 0 to 2.5% of the weed in the blank control area) | Herbicidal activity 30 days after treatment Gramineae (Gramineae; 30 days after treatment): 2 (equivalent to 0 to 2.5% of the weed in the blank control area) | Herbicidal activity 15 days after treatment Cyperaceae (Cyperaceae; 15 days after treatment): 1 | Herbicidal activity 30 days after treatment Cyperaceae (Cyperaceae; 30 days after treatment): 1 | Post-emergence weed control effect, Chenopodium album (Chenopodium album): 1 | Post-emergence weed control effect, Green bristlegrass (green bristlegrass [9]): 2 (equivalent to 0 to 2.5% of the weed in the blank control area) | Post-emergence weed control effect, Portulaca oleracea (Portulaca oleracea): 1 | Post-emergence weed control effect, Acalypha australis (Acalypha australis): 2 (equivalent to 0 to 2.5% of the weed in the blank control area) | Post-emergence weed control effect, Amaranthus retroflexus (Amaranthus retroflexus [10]): 1 | Post-emergence weed control effect, Solanum nigrum (Solanum nigrum): 2 (equivalent to 0 to 2.5% of the weed in the blank control area) | Post-emergence weed control effect, Convolvulus arvensis (Convolvulus arvensis): 1 | Post-emergence weed control effect, Barnyard grass (Barnyard grass [11]): 1 | Post-emergence weed control effect, Digitaria sanguinalis (Digitaria sanguinalis [12]): 2 (equivalent to 0 to 2.5% of the weed in the blank control area) | Post-emergence weed control effect, Goose grass (goosegrass): 2 (equivalent to 0 to 2.5% of the weed in the blank control area) | Post-emergence weed control effect, Nutgrass flatsedge (nutgrass flatsedge): 2 (equivalent to 0 to 2.5% of the weed in the blank control area) | Herbicidal Activity Humulus scandens (Humulus scandens [13]): 2 (equivalent to 0 to 2.5% of the weed in the blank control area) | Herbicidal Activity Green bristlegrass (green bristlegrass [14]): 1 | Herbicidal Activity Barnyard grass (Barnyard grass [15]): 1 | Herbicidal Activity Piemarker (Piemarker [16]): 1

CS(=O)(=O)c1ccc(C(=O)C2C(=O)CCCC2=O)c([N+](=O)[O-])c1 [Mesotrione, reference compound]
Herbicidal Activity Green bristlegrass (green bristlegrass [3]): 1 | Herbicidal Activity Amaranthus retroflexus (Amaranthus retroflexus [4]): 1 | Herbicidal Activity Barnyard grass (Barnyard grass [5]): 1 | Herbicidal Activity Humulus scandens (Humulus scandens [6]): 1 | Herbicidal Activity Digitaria sanguinalis (Digitaria sanguinalis [7]): 1 | Herbicidal Activity Piemarker (Piemarker [8]): 1 | Post-emergence weed control effect, Chenopodium album (Chenopodium album): 1 | Post-emergence weed control effect, Green bristlegrass (green bristlegrass [9]): 1 | Post-emergence weed control effect, Portulaca oleracea (Portulaca oleracea): 1 | Post-emergence weed control effect, Acalypha australis (Acalypha australis): 2 (equivalent to 0 to 2.5% of the weed in the blank control area) | Post-emergence weed control effect, Amaranthus retroflexus (Amaranthus retroflexus [10]): 1 | Post-emergence weed control effect, Solanum nigrum (Solanum nigrum): 1 | Post-emergence weed control effect, Convolvulus arvensis (Convolvulus arvensis): 1 | Post-emergence weed control effect, Barnyard grass (Barnyard grass [11]): 1 | Post-emergence weed control effect, Digitaria sanguinalis (Digitaria sanguinalis [12]): 2 (equivalent to 0 to 2.5% of the weed in the blank control area) | Post-emergence weed control effect, Goose grass (goosegrass): 2 (equivalent to 0 to 2.5% of the weed in the blank control area) | Post-emergence weed control effect, Nutgrass flatsedge (nutgrass flatsedge): 1
